From patent US9079913B2, “Spiro-oxindole MDM2 antagonists” (The Regents of the University of Michigan, priority 2009, dated 2015)
Where two headings read alike, the source gives them in different places.

What was measured:
[1] = target: recombinant human His-tagged MDM2 protein (residues 1-118) (Homo sapiens (Human), UniProt Q00987); assay: Fluorescence-polarization MDM2 binding assay;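 note: fluorescence polarization read after three hours of incubation in potassium phosphate buffer containing bovine gamma globulin and Triton X-100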
recombinant human His-tagged MDM2 protein (residues 1-118), sequence (Q00987 1-118): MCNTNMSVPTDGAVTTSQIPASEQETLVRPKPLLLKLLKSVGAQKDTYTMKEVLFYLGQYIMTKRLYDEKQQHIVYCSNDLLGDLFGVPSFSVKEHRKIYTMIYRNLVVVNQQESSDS

[2] = test system: Isogenic HCT-116 colon cancer cell lines; assay: cells; assay type: cell-based; conditions: Homo sapiens;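 note: cells grown in 96-well plates in McCoy's 5A medium with 10% FBS, exposed to compound for 4 days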
Experimental: Cells were seeded in 96-well flat bottom cell culture plates at a density of 2−3×10^3 cells/well with compounds and incubated for 4 days.

[3] = test system: cancer cell lines with wild-type p53 / mutated or deleted p53 (ATCC); assay: Cell growth assay (WST-8), other cancer cell lines; assay type: cell-based; conditions: Homo sapiens
[4] = In vitro microsomal stability, rat; assay type: in vitro ADME
[5] = Table 19A, FP binding assay, read-out: MDM2 IC50
[6] = HCT-116, read-out: HCT-116 (p53-/-) IC50, Table 19A, HCT-116 p53-/-, cell growth
[7] = HCT-116, read-out: HCT-116 (p53 wild-type) IC50, Table 19A, HCT-116 p53 wild-type, cell growth
[8] = LNCaP, Table 19A, LNCAP cells, p53 wild-type, cell growth, read-out: LNCAP (p53 wild-type) IC50
[9] = PC-3, Table 19A, PC-3 cells, deleted p53, cell growth, read-out: PC-3 (deleted p53) IC50
[10] = SJSA-1, Table 19A, SJSA-1 cells, p53 wild-type, cell growth, read-out: SJSA-1 (p53 wild-type) IC50

Row | SMILES | IC50 [1, 5] | IC50 [2, 6] | IC50 [2, 7] | IC50 [3, 8] | IC50 [3, 9] | IC50 [3, 10] | % of compound remaining when incubated in rat liver microsomes ([4]; Table 17, 0 min) | % of compound remaining when incubated in rat liver microsomes ([4]; Table 17, 4 min) | % of compound remaining when incubated in rat liver microsomes ([4]; Table 17, 6 min) | % of compound remaining when incubated in rat liver microsomes ([4]; Table 17, 10 min) | % of compound remaining when incubated in rat liver microsomes ([4]; Table 17, 15 min) | % of compound remaining when incubated in rat liver microsomes ([4]; Table 17, 30 min) | further results
1 | CNC(=O)[C@@H]1N[C@H](CC(C)(C)C)[C@]2(C(=O)Nc3cc(Cl)c(F)cc32)[C@H]1c1cccc(Cl)c1 [MI-519-40] | < 1 µM | 18.5 ± 5.5 µM | 1 ± 0.1 µM | 1 ± 0.1 µM | 14.6 ± 2.7 µM | 1.3 ± 0.3 µM | 100% | 84.2% | 70.1% | 59.6% | 58.7% | 57.6% | microsomal stability (in words) ([4]; rat liver microsomes): improved microsomal stability over MI-219
2 | CC(C)(C)C[C@H]1N[C@@H](C(=O)NCCCN2CCCC2)[C@H](c2cccc(Cl)c2)[C@@]12C(=O)Nc1cc(Cl)c(F)cc12 [MI-519-38] | < 1 µM | 5.3 ± 1.6 µM | 1.4 ± 0.6 µM | 1 ± 0.3 µM | 3.1 ± 0.4 µM | 2.1 ± 0.1 µM |  |  |  |  |  |  | % of compound remaining when incubated in rat liver microsomes at indicated time (min) ([4]; 0 min): 100%; % of compound remaining when incubated in rat liver microsomes at indicated time (min) ([4]; 4 min): 91.5%; % of compound remaining when incubated in rat liver microsomes at indicated time (min) ([4]; 6 min): 85.4%; % of compound remaining when incubated in rat liver microsomes at indicated time (min) ([4]; 10 min): 82.4%; % of compound remaining when incubated in rat liver microsomes at indicated time (min) ([4]; 15 min): 80.8%; % of compound remaining when incubated in rat liver microsomes at indicated time (min) ([4]; 30 min): 73.2%
3 | CC(C)(C)C[C@H]1N[C@@H](C(=O)NCCCN2CCCCC2)[C@H](c2cccc(Cl)c2F)[C@@]12C(=O)Nc1cc(Cl)ccc12 [MI-519-44] | < 10 µM | 2.8 ± 0.7 µM | 0.8 µM | 1.3 ± 0.2 µM | 2.6 ± 0.1 µM | 0.9 ± 0.1 µM | 100% | 85.6% | 74.7% | 66.4% | 61.2% | 42.5% | 
4 | CC(C)(C)C[C@H]1N[C@@H](C(N)=O)[C@H](c2cccc(Cl)c2)[C@@]12C(=O)Nc1cc(Cl)c(F)cc12 [MI-519-41] | < 1 µM | 17.9 ± 2.2 µM | 1 ± 0.3 µM | 1.2 µM | 14.9 ± 1.1 µM | 1.3 ± 0.4 µM | 100% | 84.2% | 80.4% | 66.1% | 55.4% | 42.9% | 
5 | CC(C)N1CCN(CCCNC(=O)[C@@H]2N[C@H](CC(C)(C)C)[C@]3(C(=O)Nc4cc(Cl)ccc43)[C@H]2c2cccc(Cl)c2F)CC1 [MI-519-45] | < 10 µM | 6.9 ± 1.9 µM | 0.9 ± 0.3 µM | 1 ± 0.2 µM | 5.1 ± 0.9 µM | 0.8 ± 0.2 µM | 100% | 81.1% | 59.6% | 50.7% | 44.3% | 38.5% | 
6 | CN1CCN(CCNC(=O)[C@@H]2N[C@H](CC(C)(C)C)[C@]3(C(=O)Nc4cc(Cl)c(F)cc43)[C@H]2c2cccc(Cl)c2)CC1 [MI-749] | < 1 µM | 7.8 ± 1.3 µM | 1.2 ± 0.4 µM | 1 ± 0.1 µM | 5 ± 0.5 µM |  | 100% | 82.9% | 58.4% | 54.2% | 42.7% | 23% | 
7 | CC(C)(C)C[C@H]1N[C@@H](C(=O)NCCCN2CCCC2)[C@H](c2cccc(Cl)c2F)[C@@]12C(=O)Nc1cc(Cl)c(F)cc12 [MI-764] | < 1 µM | 3.8 ± 0.7 µM | 0.5 ± 0.2 µM | 1 ± 0.4 µM | 2.4 ± 0.4 µM | 1.2 ± 0.3 µM | 100% | 87.8% | 76.5% | 66.5% | 63.9% | 55.8% | 
8 | CN1CCN(CCCNC(=O)[C@@H]2N[C@H](CC(C)(C)C)[C@]3(C(=O)Nc4cc(Cl)ccc43)[C@H]2c2cccc(Cl)c2F)CC1 [MI-519-46] | < 1 µM | 4.3 ± 0.4 µM | 0.4 ± 0.1 µM | 0.5 ± 0.3 µM | 3.7 ± 0.4 µM | 0.5 ± 0.3 µM | 100% | 83.8% | 70.9% | 53.9% | 53.4% | 38.3% | 
9 | CC(C)(C)C[C@H]1N[C@@H](C(=O)NCCN2CCNCC2)[C@H](c2cccc(Cl)c2)[C@@]12C(=O)Nc1cc(Cl)c(F)cc12 [MI-748] | < 1 µM | 7.6 ± 1 µM | 0.9 ± 0.7 µM | 0.8 µM | 4.1 ± 0.1 µM |  | 100% | 79.1% | 69.7% | 61.5% | 49.9% | 43.7% | 
10 | CC(C)[C@@H](N)C(=O)OC1CCC(NC(=O)[C@@H]2N[C@H](CC(C)(C)C)[C@]3(C(=O)Nc4cc(Cl)ccc43)[C@H]2c2cccc(Cl)c2F)CC1 (some centres unmarked) [MI-905] | < 1 µM | 8 µM | < 3 µM | < 3 µM | 3.9 µM | < 3 µM |  |  |  |  |  |  | 
11 | CCCCNC(=O)N1CC(NC(=O)[C@@H]2N[C@H](CC(C)(C)C)[C@]3(C(=O)Nc4cc(Cl)ccc43)[C@H]2c2cccc(Cl)c2F)C1 [MI-916] | < 0.1 µM | > 5 µM | < 3 µM | < 3 µM | > 5 µM | < 5 µM |  |  |  |  |  |  | 
12 | CC(C)(C)C[C@H]1N[C@@H](C(=O)NCC[C@H](O)CO)[C@H](c2cccc(Cl)c2)[C@@]12C(=O)Nc1cc(F)ccc12 [MI-519-15] |  |  |  |  |  |  |  |  |  |  |  |  | IC50 ([1]; Table 19D, read-out: MDM2 Binding Affinities IC50): < 1 µM; IC50 ([2]; HCT-116, read-out: HCT116p53KO IC50, Table 19D, HCT116 p53KO): > 10 µM; IC50 ([2]; HCT-116, read-out: HCT116p53WT IC50, Table 19D, HCT116 p53WT): < 3 µM; IC50 ([3]; LNCaP, Table 19D, LNCaP cells, read-out: LNCaP IC50): < 5 µM; IC50 ([3]; PC-3, Table 19D, PC3 cells, read-out: PC3 IC50): > 10 µM
13 | CN1CCN(C(=O)[C@@H]2N[C@H](CC(C)(C)C)[C@]3(C(=O)Nc4cc(Cl)c(F)cc43)[C@H]2c2cccc(Cl)c2)CC1 [MI-740] | < 5 µM | 5.4 ± 1.9 µM | 2.8 ± 0.1 µM | 2 ± 0.3 µM | 4.8 ± 0.8 µM |  |  |  |  |  |  |  | 
14 | CC(C)(C)C[C@H]1N[C@@H](C(=O)N2CCNCC2)[C@H](c2cccc(Cl)c2)[C@@]12C(=O)Nc1cc(Cl)c(F)cc12 [MI-739] | < 5 µM | 3 ± 0.2 µM | 2.1 ± 0.6 µM | 1.5 ± 0.5 µM | 3.2 ± 0.7 µM |  |  |  |  |  |  |  | 
